Reference: patent US12351652B2, “Hemagglutinin-binding peptide” (priority 2019, dated 2025)
*1 amine or outer side, *2 acyl side, *3 side chain or, on linkers, in order; H or OH if unused. Where a SMILES comes first, the peptide text is derived from it. Bridges are numbered along the chain shown (N, C = ends). [ ]: non-standard residue; d: D form. The star is where a group is joined. Ethylenediamine = C(CN[*:2])N[*:1]; Hyp = O=C(O)[C@@H]1C[C@@H](O)CN1; NMeF = CN[C@@H](Cc1ccccc1)C(=O)O; Decanoyl = CCCCCCCCCC(=O)*; NMeA = CN[C@@H](C)C(=O)O; Sar = CNCC(=O)O

Tests used:
[1] = tested on: influenza virus A/Puerto Rico/8/34 (H1N1); format: cell-based
[2] = tested on: influenza virus A/Puerto Rico/8/34 (H1N1); set-up: species or system BALB/cA Jcl [SPF] mice; conditions: mouse
[3] = tested on: influenza virus A/Nagasaki/HA-58/2009 (H1N1); format: cell-based
[4] = tested on: influenza virus A/Duck/Pennsylvania/84 (H5N2); format: cell-based

CCCCCCCCCC(=O)NCCNC(=O)[C@@H]1CSCC(=O)N[C@@H](Cc2c[nH]c3ccccc23)C(=O)N[C@@H]([C@@H](C)O)C(=O)N(C)CC(=O)N[C@@H](CC(=O)O)C(=O)N(C)[C@@H](Cc2ccccc2)C(=O)N(C)[C@@H](Cc2ccccc2)C(=O)N[C@@H](C)C(=O)N(C)[C@@H](C)C(=O)N[C@@H](Cc2cnc[nH]2)C(=O)N[C@@H](Cc2ccc(O)cc2)C(=O)N[C@@H]([C@@H](C)O)C(=O)N[C@@H](C(C)C)C(=O)N2C[C@H](O)C[C@H]2C(=O)N[C@@H](C)C(=O)N1 [HA152] ({CH2CO}-WT[Sar]D[NMeF][NMeF]A[NMeA]HYTV[Hyp]AC-{Ethylenediamine-Decanoyl}; thioether N-15)
inhibition of cell death in low concentration range [1]: remarkable inhibition of cell death | in vivo anti-virus activity compared to peramivir [2]: comparable or superior to peramivir | survival rate ([2]; in vivo, iv): 60% | inhibition of cell death in low concentration range [3]: remarkable inhibition of cell death | inhibition of cell death in low concentration range [4]: remarkable inhibition of cell death
